Source: patent publication US5548062A, “Tumor cell invasion-inhibiting peptides, peptide complexes and cancer metastasis inhibitors” (Asahi Glass Company Ltd., priority 1990, dated 1996)
Where a SMILES comes first, the peptide text is derived from it.

Test: Kinetics in blood after injection into the tail vein
Design: species or system C57BL/6j mouse
Conditions: female, C57BL/6j, mouse, in vivo, iv
Procedure: The kinetics in blood of the peptide of the formula (14) prepared in the Reference Example and the [^14 C]-labeled complex prepared in Example D-2 were studied.
To the vein of the tail of a C57BL/6j mouse (8 weeks old, female), 1,000 μg/0.2 cm^3 of the peptide or 100 μg/0.2 cm^3 of the labeled complex was injected. Upon expiration of a predetermined period of time, the carotid artery was cut for blood sampling. To quantitatively analyze the amount of the peptide in blood, to 1 cm^3 of the sampled blood, the same amount of 10% trifluoroacetic acid was added, followed by centrifugal separation at a speed of 10,000 rpm to precipitate the denatured protein, and the supernatant was recovered. […] To the obtained freeze-dried product, 0.2 cm^3 of distilled water was added, and the quantitative analysis was conducted by reversed phase (C18) chromatography. The quantitative analysis was conducted based on the quantitative curve obtained with a standard product (the peptide prepared in the Reference Example and quantitatively analyzed by an amino acid analysis).
To quantitatively analyze the [^14 C]-labeled complex, 2.5 cm^3 of a tissue solubilizer (NCA, Amersham Company) was added to 0.2 cm^3 of the sampled blood, followed by heating at 50° C. for two hours to solubilize the blood. […]

`C[C@H](N)C(=O)N[C@@H](CCC(=O)O)C(=O)N[C@@H](CC(=O)O)C(=O)NCC(=O)N[C@@H](CC(=O)O)C(=O)N[C@@H](C)C(=O)N[C@@H](CCCCN)C(=O)N[C@H](C(=O)N[C@@H](CC(=O)O)C(=O)N[C@@H](CCC(N)=O)C(=O)N[C@@H](C)C(=O)N[C@@H](CCC(=O)O)C(=O)N[C@@H](CCCCN)C(=O)N[C@@H](C)C(=O)N[C@@H](CCC(=O)O)C(=O)NCC(=O)N[C@@H](C)C(=O)NCC(=O)N[C@@H](CC(=O)O)C(=O)N[C@@H](C)C(=O)N[C@@H](CCCCN)C(=O)O)[C@@H](C)O` [peptide of the formula (14), Ala-Glu-Asp-Gly-Asp-Ala-Lys-Thr-Asp-Glx-Ala-Glx-Lys-Ala-Glu-Gly-Ala-Gly-As p-Ala-Lys] (H-AEDGDAKTDQAEKAEGAGDAK-OH) gave a half-life of about 20 s.
